Test results taken from patent EP4664463A1, “COMPUTER-IMPLEMENTED METHOD FOR OLFACTORY PROPERTY PREDICTION” (Givaudan SA, priority 2024, dated 2025).
Where “and” joins values, the source holds several entries; their conditions need not be identical. Identical values can stand only once. Like-named read-outs stand apart in the source and are kept apart here.

Columns and labels:
[1] = target: T1, OR identified in the library screening (receptor named per line) (Homo sapiens, UniProt Q8NGG4); test: Confirmatory dose-response of library hits, wild-type OR vs OR with C-terminus SEQ ID NO: 221 (Table 17); format: cell-based; details: receptor OR8H1, wild-type sequence; read-out: Potency EC50 wild-type (converted)
T1 construct: expressed in transfected cells; host or cells: HEK293T stably expressing human RTP1S(V227I) and RTP2(L220R) (general method)
Protocol: (§3) Selected ligand - OR pairs were then tested in a confirmatory test with a dose response analysis.
(§4) Dose-response analysis with the cognate ligand was then performed for both the wild-type and the modified sequence.

[2] = target: T2, OR identified in the library screening (receptor named per line) (Homo sapiens, UniProt Q8NGN4); test: as above; format: cell-based; details: receptor OR10G9, wild-type sequence; read-out: Potency EC50 wild-type (converted)
T2 construct: expressed in transfected cells; host or cells: HEK293T stably expressing human RTP1S(V227I) and RTP2(L220R) (general method)
Protocol: as §3, §4

[3] = target: T3, OR identified in the library screening (receptor named per line) (Homo sapiens, UniProt Q8NG80); test: as above; format: cell-based; details: receptor OR2L5, wild-type sequence; read-out: Potency EC50 wild-type (converted)
T3 construct: expressed in transfected cells; host or cells: HEK293T stably expressing human RTP1S(V227I) and RTP2(L220R) (general method)
Protocol: as §3, §4

OR1N2 [4] = target: T4, OR1N2 (Homo sapiens, UniProt Q8NGR9); format: cell-based; details: changed C-term. SEQ ID NO: 86
T4 construct: expressed in transfected cells; host or cells: HEK293T cells stably expressing human RTP1S (V227I) and RTP2 (L220R)
Source text: (§1) To create an expression plasmid, an OR coding sequence fused at the end of TM7 to the desired C-terminus sequence was synthesized by a DNA synthesis service provider (BioCat GmbH, Germany) and inserted into pcDNA3.1(+) (Invitrogen, MA, USA) downstream of the CMV promoter sequence (SEQ ID NO: 82) using BamHI and Notl restriction sites. All the synthetic OR nucleotide sequences described below in Examples 1-15 further contained at their N-terminus a nucleotide sequence encoding a signal peptide (mmLucy-FLAG-rho, SeQ ID NOs: 80, 81) and at the C-terminus the bgh terminator sequence (SEQ ID NO: 83). All the OR expression plasmids also contain a Kozak sequence (GCCACC) between the BamHI restriction site and the start codon of the signal peptide. These plasmids thus contain a constitutively expressed OR gene.
T4 sequence (Q8NGR9 with tags, fused parts or gaps): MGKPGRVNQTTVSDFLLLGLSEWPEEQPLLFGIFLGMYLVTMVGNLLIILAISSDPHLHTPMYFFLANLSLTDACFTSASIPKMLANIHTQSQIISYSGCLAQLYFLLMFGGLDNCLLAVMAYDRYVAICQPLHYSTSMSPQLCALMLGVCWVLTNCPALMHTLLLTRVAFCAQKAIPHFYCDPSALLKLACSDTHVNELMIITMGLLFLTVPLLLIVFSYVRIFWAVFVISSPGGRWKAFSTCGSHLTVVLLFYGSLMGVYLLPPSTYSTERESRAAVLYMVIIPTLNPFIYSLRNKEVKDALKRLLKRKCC

OR1N2 [5] = target: T5, OR1N2 (Homo sapiens, UniProt Q8NGR9); format: cell-based; details: wild-type
T5 construct: expressed in transfected cells; host or cells: HEK293T cells stably expressing human RTP1S (V227I) and RTP2 (L220R)
Source text: as §1
T5 sequence (Q8NGR9 whole entry): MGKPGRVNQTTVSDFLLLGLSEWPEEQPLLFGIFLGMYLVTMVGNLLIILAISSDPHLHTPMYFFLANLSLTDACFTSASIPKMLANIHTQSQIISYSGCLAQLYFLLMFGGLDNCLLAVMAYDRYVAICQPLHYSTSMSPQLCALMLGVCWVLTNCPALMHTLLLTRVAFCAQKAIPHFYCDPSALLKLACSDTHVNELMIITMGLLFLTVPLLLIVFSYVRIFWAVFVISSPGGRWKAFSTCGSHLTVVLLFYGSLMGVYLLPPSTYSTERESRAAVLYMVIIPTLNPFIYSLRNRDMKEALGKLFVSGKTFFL

[6] = target: T6, OR identified in the library screening (receptor named per line) (Homo sapiens, UniProt Q8WZ84); test: Confirmatory dose-response of library hits, wild-type OR vs OR with C-terminus SEQ ID NO: 221 (Table 17); format: cell-based; details: receptor OR8D1, wild-type sequence; read-out: Potency EC50 wild-type (converted)
T6 construct: expressed in transfected cells; host or cells: HEK293T stably expressing human RTP1S(V227I) and RTP2(L220R) (general method)
Protocol: as §3, §4

[7] = target: T7, OR identified in the library screening (receptor named per line) (Homo sapiens, UniProt Q8NGJ0); test: as above; format: cell-based
T7 construct: expressed in transfected cells; host or cells: HEK293T stably expressing human RTP1S(V227I) and RTP2(L220R) (general method)
Protocol: as §3, §4

OR7A17 [8] = target: T8, OR7A17 (Homo sapiens, UniProt O14581); test: Luciferase dose-response, wild-type vs changed C-terminus (SEQ ID NO: 86); format: cell-based; details: wild-type
T8 construct: expressed in transfected cells; host or cells: HEK293T cells stably expressing human RTP1S (V227I) and RTP2 (L220R)
Source text: as §1
(§2) Thus, optimal improvement of activity is not achieved by the approach of just using the parent C-terminus and mutating it towards consensus, but rather by exchanging the C-terminal sequence with the optimized sequence described herein.
T8 sequence (O14581 whole entry): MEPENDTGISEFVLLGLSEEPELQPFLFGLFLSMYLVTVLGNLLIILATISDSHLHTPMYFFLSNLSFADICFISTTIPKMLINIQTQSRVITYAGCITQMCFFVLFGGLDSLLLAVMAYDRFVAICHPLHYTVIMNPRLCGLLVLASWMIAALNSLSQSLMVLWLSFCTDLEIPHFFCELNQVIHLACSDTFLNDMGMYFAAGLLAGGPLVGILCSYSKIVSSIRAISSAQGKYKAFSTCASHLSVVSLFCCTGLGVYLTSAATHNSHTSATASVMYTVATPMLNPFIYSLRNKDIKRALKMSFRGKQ

OR7A17 [9] = test: as above; format: cell-based, human
Source text: as §1, §2

OR7A17 [10] = target: T9, OR7A17 (Homo sapiens, UniProt O14581, D296E/I297V/R299D); test: as above; format: cell-based
T9 construct: expressed in transfected cells; host or cells: HEK293T cells stably expressing human RTP1S (V227I) and RTP2 (L220R)
T9 sequence (O14581 with tags, fused parts or gaps D296E/I297V/R299D): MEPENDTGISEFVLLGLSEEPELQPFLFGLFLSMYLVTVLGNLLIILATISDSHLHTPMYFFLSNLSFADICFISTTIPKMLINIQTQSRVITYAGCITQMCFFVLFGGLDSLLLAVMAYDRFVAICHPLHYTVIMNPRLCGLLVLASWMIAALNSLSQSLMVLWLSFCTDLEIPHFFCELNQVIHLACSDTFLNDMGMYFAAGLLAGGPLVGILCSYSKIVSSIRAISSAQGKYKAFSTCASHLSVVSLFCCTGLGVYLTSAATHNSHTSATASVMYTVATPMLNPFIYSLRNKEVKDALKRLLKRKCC
Source text: as §1, §2

OR7A17 [11] = target: T10, OR7A17 (Homo sapiens, UniProt O14581); test: Detection of Ambrofix spiked into Geranium oil on OR7A17 with SEQ ID 221; format: cell-based
T10 construct: expressed in transfected cells; host or cells: HEK293T cells stably expressing human RTP1S (V227I) and RTP2 (L220R) (general approach)
T10 sequence (O14581 with tags, fused parts or gaps): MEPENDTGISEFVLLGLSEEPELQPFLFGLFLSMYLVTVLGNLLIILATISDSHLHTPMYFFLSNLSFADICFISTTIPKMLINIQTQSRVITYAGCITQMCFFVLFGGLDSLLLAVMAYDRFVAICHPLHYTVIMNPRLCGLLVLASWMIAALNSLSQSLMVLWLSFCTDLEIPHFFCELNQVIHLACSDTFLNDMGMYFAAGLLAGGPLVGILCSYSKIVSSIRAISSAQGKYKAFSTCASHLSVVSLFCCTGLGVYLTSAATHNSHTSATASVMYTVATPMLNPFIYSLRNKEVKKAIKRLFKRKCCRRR
Protocol: These mixtures were tested with OR7A17 with a C-terminal domain of SEQ ID 221 (a DNA sequence encoding the modified receptor is included as SEQ ID NO: 611) as described in example 20.

[12] = target: T11, OR identified in the library screening (receptor named per line) (Homo sapiens, UniProt Q8NGC4, S73G); test: Confirmatory dose-response of library hits, wild-type OR vs OR with C-terminus SEQ ID NO: 221 (Table 17); format: cell-based; details: receptor OR10G3(S73G), wild-type sequence; read-out: Potency EC50 wild-type (converted)
T11 construct: expressed in transfected cells; host or cells: HEK293T stably expressing human RTP1S(V227I) and RTP2(L220R) (general method)
T11 sequence (Q8NGC4 whole entry S73G): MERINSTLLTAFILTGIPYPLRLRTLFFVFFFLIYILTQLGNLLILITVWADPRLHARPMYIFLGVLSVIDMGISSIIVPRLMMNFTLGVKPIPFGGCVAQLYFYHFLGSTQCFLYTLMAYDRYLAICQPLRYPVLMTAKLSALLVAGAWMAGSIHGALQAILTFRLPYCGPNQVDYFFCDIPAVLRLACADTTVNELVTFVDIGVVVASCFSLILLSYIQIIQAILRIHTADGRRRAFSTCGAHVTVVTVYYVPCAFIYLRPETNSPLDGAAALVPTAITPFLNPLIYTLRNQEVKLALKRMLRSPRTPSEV
Protocol: as §3, §4

**Q.** For N#CC(=C1CCCCC1)c1ccccc1 [Peonile], which EC50 [1] is on record?
**A.** 17.3 µM

**Q.** With CCOc1cc(C)ccc1O [Ultravan il] as the molecule, how does the EC50 [2] read?
**A.** 91.4 µM

**Q.** With CCOC(=O)C1CCCCC1 [Ethyl cyclohexanecarboxylate (Esterly), Ethyl cyclohexanecarboxylate] as the molecule, how does the EC50 [3] read?
**A.** 115 µM

**Q.** For O=C1CCCCCCCC=CCCCCCCO1 [Ambrettolide], which “Detection threshold; concentration for 2-fold induction” value (OR1N2 [4]) is on record?
**A.** 0.26 µM

**Q.** And the “Detection threshold; concentration for 2-fold induction” value (OR1N2 [5])?
**A.** 1.33 µM

**Q.** How did the EC50 [6] turn out when CC1=C(O)C(=O)OC1C (stereo not drawn) [Sotolon e] was run?
**A.** 19 µM

**Q.** With CC(=O)/C=C/C1=C(C)CCCC1(C)C [β-lonone] as the molecule, how does the EC50 [7] read?
**A.** 48.3 µM

**Q.** Which “Detection threshold; concentration for 2-fold induction” value (OR7A17 [8]) does the source give for CC1(C)CCCC2(C)C1CCC1(C)OCCC12 (stereo not drawn) [Ambrofix] here?
**A.** 1.9 µM

**Q.** And the EC50 (OR7A17 [8]; read-out: Potency EC50)?
**A.** 5.6 µM

**Q.** What about the Comments on efficacy (OR7A17 [9]) of the same molecule?
**A.** 2-fold lower maximal induction for wild-type

**Q.** And the Fold-improvement potency (OR7A17 [9])?
**A.** 4.2

**Q.** What about the Fold-improvement threshold (OR7A17 [9]) of the same molecule?
**A.** 18 and 18.4

**Q.** What about the “lowering of detection threshold vs wild-type” value (OR7A17 [9]; OR7A17 C-terminus altered towards consensus) of the same molecule?
**A.** 3 fold

**Q.** And the “detection threshold for two-fold induction” value (OR7A17 [9]; OR7A17 C-terminus altered towards consensus (5 amino acids))?
**A.** 0.6 µM

**Q.** What about the EC50 (OR7A17 [10]; changed C-term SEQ ID NO: 86, read-out: Potency EC50) of the same molecule?
**A.** 1.3 µM

**Q.** What about the “Detection threshold; concentration for 2-fold induction” value (OR7A17 [10]; changed C-term. SEQ ID NO: 86) of the same molecule?
**A.** 0.1 µM

**Q.** And the “detectable concentration of target ingredient against a complex matrix” value (OR7A17 [11])?
**A.** ≤ 0.1%

**Q.** COc1cc(C=O)ccc1O [Vanillin] was tested. Which EC50 [12] did it give?
**A.** 261 µM
